Common to all, as to experiment: growth of human tumour cells (NCI), 48 h
Test [1] deals with SF-268 CNS.
Test [2] relates to SN12C renal.
Test [3] concerns SK-OV-3 ovarian.
Test [4] deals with EKVX NSCLC.
The subject of test [5] is OVCAR-4 ovarian.
In test [6] the test system is UO-31 renal.
Test [7] deals with HOP-62 NSCLC.
Test [8] relates to HS 578T breast.
In test [9] the test system is OVCAR-8 ovarian.
Test [10] relates to KM12 colon.

Values joined by “and” are separate entries in the source; they are usually repeats but may differ in a detail not shown here. Equal values may be shown once.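 Tested at 5 concentrations; 48 h exposure; 96-well plates; endpoints linearly interpolated, else capped at highest concentration. Abbreviation: GI50, concentration required for 50% inhibition of growth. At the TGI there is no net growth.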

`CCN(Cc1cccc(Cl)c1)c1ccc(CO)c(Cl)c1`: the GI50 is 13.8 µM in [1]; 11.9 µM in test [2]; 5.62 µM in test [3]; 12.4 µM in [4]; 0.505 µM in test [5]; 3.55 µM in [6]. For the same compound, the GI50 was 2.09 µM in [7], 13.6 µM in [8], 10.5 µM in test [9] and 12.9 µM in test [10]. For the same compound, the TGI came out at 28 µM in test [1]; 27.3 µM in test [2]; 18.2 µM in test [3]; 27 µM in test [4]; 9.87 µM in test [5]; 17.6 µM in [6]. Further, the TGI was found to be 16.3 µM in test [7], 37.5 µM in test [8], 23.3 µM in [9] and 26.8 µM in [10].
For the compound `CC(=O)c1cc(C(=O)c2ccc3c(c2)Sc2ccccc2N3)n2ccccc12`, the TGI is greater than 33.2 µM in test [1]; greater than 33.2 µM in test [2]; 21.5 µM in [3]; greater than 33.2 µM in [4]; greater than 33.2 µM in test [6]; greater than 33.2 µM in test [7]. Also, the TGI in test [8] and in test [9] was greater than 33.2 µM throughout. Moreover, the GI50 in test [3] was 0.00438 µM and 0.00332 µM; in test [4], 0.0291 µM and 0.00498 µM; in test [5], 0.0145 µM; in test [6] it was 0.00579 µM and 0.00332 µM; in test [7], 0.00399 µM and 0.00332 µM; in test [8], 0.00375 µM and 0.00332 µM. For the same compound, the GI50 in test [9] was 0.00752 µM and 0.00332 µM; in test [10], 0.00441 µM.
For `O=C1C=CC(=O)c2c(O)c3c(c(O)c21)C[C@H](O)[C@H](O)[C@@H]3O`, the TGI is 8.02 µM in test [1]; 3.82 µM in test [2]; 33 µM in test [3]; 6.15 µM in [4]; 3.45 µM in test [5]; greater than 24 µM in [6]. For the same compound, the TGI in test [7] stood at 13.2 µM; in test [8], 7.87 µM; in test [9], 6.59 µM; in test [10], 16.8 µM.
For `CC(=O)[C@H]1CCC/C=C/[C@@H]2C[C@H](O)C[C@H]2[C@H](O)/C=C/C(=O)O1`, the GI50 in test [1] was 0.448 µM; in test [2] it was 2.17 µM; in [3], 2.43 µM; in test [4], 0.932 µM; in test [5], 0.434 µM; in [6] it was 0.296 µM. The GI50 in test [7] is 2.08 µM; in test [8], 2.44 µM; in test [9], 0.982 µM; in test [10] it was 0.75 µM. Also, the TGI was greater than 100 µM in test [1]; greater than 100 µM in test [2]; greater than 31.6 µM in test [3]; greater than 100 µM in test [4]; greater than 22.2 µM in [5]; greater than 100 µM in [6]. Besides, the TGI is greater than 30.2 µM in [7], greater than 100 µM in test [8], greater than 100 µM in test [9] and greater than 19.7 µM in test [10].
On to `Cc1cc(Nc2cc(N3CCN(C)CC3)nc(/C=C/c3ccccc3)n2)n[nH]1`, for which the GI50 in test [1] was 0.845 µM; in test [2] it was 0.62 µM; in [3], 1.35 µM; in test [4] it was 1.21 µM; in [5], 0.644 µM; in [6] it was 0.263 µM. Further, the GI50 is 0.768 µM in [7], 0.517 µM in [8], 1.68 µM in [9] and 0.0426 µM in [10]. The TGI in test [1] is greater than 4.08 µM; in test [2] it was greater than 10 µM; in test [3], greater than 10 µM; in [4] it was greater than 7.24 µM; in test [5] it was greater than 10 µM; in [6], 2.7 µM. In addition, the TGI was greater than 3.98 µM in test [7], 1.86 µM in [8], greater than 10 µM in [9] and greater than 3.84 µM in test [10].
On to `O=c1c(Cl)c(Cl)cnn1CCCl`, for which the TGI in test [1] came to 14.1 µM; in [2], 25.5 µM; in test [3] it was 21.7 µM; in [4] it was 15.9 µM; in [5] it was 3.14 µM; in test [6] it was 10.7 µM. The TGI came out at 34.5 µM in [7], 12.8 µM in test [8], 10.9 µM in test [9] and 29.7 µM in [10].
For the compound `COc1cc(C2c3cc4c(cc3C(OC(=O)C[n+]3ccccc3)C3COC(=O)C23)OCO4)cc(OC)c1OC` (stereo unspecified), the GI50 in test [1] is less than 0.0208 µM; in test [2], less than 0.0247 µM; in test [3], less than 0.0207 µM; in [4], 0.436 µM; in test [5], less than 0.0239 µM; in test [6] it was less than 0.0231 µM. Moreover, the GI50 in test [7] was less than 0.0259 µM; in [8], less than 0.0241 µM; in test [9] it was less than 0.021 µM; in [10], less than 0.0168 µM. Besides, the TGI in test [1], in test [2], in [3], in test [4], in test [5] and in test [6] was greater than 100 µM in each case. Further, the TGI in test [7], in test [8], in [9] and in [10] was greater than 100 µM each time.
With `CCCCCC/C=C\CCCCCCCCCC1=C(CN2CCN(C)CC2)C(=O)C=C(OC)C1=O`, the TGI was determined as 19.7 µM in [1]; 19.7 µM in [2]; 25.9 µM in test [3]; 27.9 µM in [4]; 3.8 µM in test [5]; 9.2 µM in test [6]. The TGI in test [7] came to 30.7 µM; in test [8] it was 24.5 µM; in [9], 17 µM; in test [10], 21 µM.
Consider `C=CCC(N[C@H](CO)c1ccccc1)c1cn(Cc2ccccc2Cl)c(=O)n(Cc2ccccc2Cl)c1=O` (stereo partly specified), for which the GI50 is 18.6 µM in test [1]; 14.6 µM in test [2]; 63.8 µM in [3]; 16.1 µM in test [4]; 26.6 µM in test [5]; 6.89 µM in test [6]. Further, the GI50 is 12 µM in [7], 26 µM in [8], 15.2 µM in test [9] and 17.5 µM in test [10]. Moreover, the TGI in test [1] is greater than 100 µM; in [2] it was 40.9 µM; in [3], greater than 100 µM; in test [4], 96.4 µM; in test [5], greater than 100 µM; in test [6], greater than 100 µM. For the same compound, the TGI in test [7] is 29.9 µM; in test [8] it was greater than 100 µM; in [9] it was greater than 100 µM; in test [10] it was 73.3 µM.

(Values after PubChem BioAssay (NCI).)
